The record followed here is PMC9587021, “Construction of a bioluminescence-based assay for bitter taste receptors (TAS2Rs)” (Scientific Reports, 2022).

What all share (assay): cell-based
One test deals with T1, TAS2R3 (Homo sapiens, UniProt Q9NYW6).
T1 sequence (Q9NYW6 1-316): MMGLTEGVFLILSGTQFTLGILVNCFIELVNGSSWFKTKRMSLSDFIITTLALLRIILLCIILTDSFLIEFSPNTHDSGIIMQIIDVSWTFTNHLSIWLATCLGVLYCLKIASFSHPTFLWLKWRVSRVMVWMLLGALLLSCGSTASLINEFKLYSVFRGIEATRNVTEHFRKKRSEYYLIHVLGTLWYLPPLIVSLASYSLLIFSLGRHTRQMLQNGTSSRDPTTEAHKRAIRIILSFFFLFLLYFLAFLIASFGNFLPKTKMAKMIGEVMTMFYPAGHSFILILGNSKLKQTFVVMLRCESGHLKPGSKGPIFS
More on the design: bioluminescence intracellular calcium release assay, mt-clytin II with coelenterazine, Gα16-gust44 co-expressed. The conditions noted are these: 293AD cells. On the procedure:
(§1) The bioluminescence-based assay was used to characterize the functional properties of various human TAS2Rs. For each TAS2R, one or more of its cognate agonists were tested against either the AD-293 or 293AD cell line, or both. Both cell lines were used because of their stronger adherent properties, which facilitate media changes on the day of the FLIPR assay. However, because both cell lines are generated differently, some disparities in gene expression capacities due to a myriad of factors could be reasonably expected. Consequently, some TAS2Rs may be well expressed in one cell line but not the other, and the ability of each cell line to express a particular TAS2R needs to be empirically evaluated. […] However, deviations between our experimental and published potency values for some ligands (i.e. TAS2R4: stevioside; TAS2R7: Mg^2+, Mn^2+, Zn^2+) were observed, which could be attributed to the use of a different assay format, readout and processing parameters, use of different cell lines with resultant potential differences in TAS2R expression levels, and quality and methodological differences in ligand preparations. Because potency values could be obtained that were consistent with the literature, or close to the reported minimal effective stimulatory concentration upon further testing of other TAS2R4/7 agonists, the deviation in EC50 values could be largely attributed to qualitative differences in the ligands (Supplementary Fig. S3). Calcium responses induced by the tested cognate agonists reflected specific TAS2R stimulation. […] Poor localization of TAS2Rs to the cell surface in heterologous systems was associated with diminished receptor signaling output and functionality. One of the more commonly used strategies to enhance the density of TAS2Rs at the cell surface involves fusing an N-terminal signal sequence of either the SST3, or Rho receptor to the TAS2R[24]. We adopted this approach, specifically co-expressing SST3-TAS2R with Gα16-gust44 chimera and mt-clytin II, to develop and validate a bioluminescence-based TAS2R intracellular calcium release assay. A strength of the bioluminescence-based TAS2R assay is its capacity to generate greater assay spans than that of fluorescence-based assays, which could be largely attributed to the utilization of mt-clytin II as the calcium reporter. Calcium-binding photoproteins in general are useful reporters for studying calcium-mediated signaling processes. […] Its fast calcium binding and dissociation kinetics render it a suitable indicator to report on swift, transient changes in calcium ion concentrations and study rapid receptor-ligand interactions. Mitochondrial targeting of clytin II was crucial to generating higher luminescence intensity than that of cytosol-localized clytin II, as inositol 1,4,5-triphosphate (IP3)-induced calcium release from the ER subsequent to ligand activation is thought to result in the formation of ER-proximal, calcium-rich microdomains that enabled the closely apposed mitochondria to sense a higher initial rise in calcium concentration than would be experienced by the bulk cytosol.

Another test concerns the target T2, TAS2R39 (Homo sapiens, UniProt P59534).
T2 sequence (P59534 1-338): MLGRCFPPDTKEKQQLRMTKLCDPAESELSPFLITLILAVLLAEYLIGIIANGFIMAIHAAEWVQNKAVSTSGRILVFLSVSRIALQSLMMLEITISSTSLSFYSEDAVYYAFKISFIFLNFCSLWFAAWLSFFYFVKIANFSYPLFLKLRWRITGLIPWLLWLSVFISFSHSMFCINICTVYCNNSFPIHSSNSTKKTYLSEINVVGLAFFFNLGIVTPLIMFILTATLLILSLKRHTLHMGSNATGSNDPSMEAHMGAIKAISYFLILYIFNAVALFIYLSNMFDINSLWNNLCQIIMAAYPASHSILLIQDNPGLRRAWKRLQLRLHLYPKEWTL
More on the design: bioluminescence intracellular calcium release assay, mt-clytin II with coelenterazine, Gα16-gust44 co-expressed. On the procedure:
as §1

In a further test the target is T3, TAS2R5 (Homo sapiens, UniProt Q9NYW4).
T3 sequence (Q9NYW4 1-299): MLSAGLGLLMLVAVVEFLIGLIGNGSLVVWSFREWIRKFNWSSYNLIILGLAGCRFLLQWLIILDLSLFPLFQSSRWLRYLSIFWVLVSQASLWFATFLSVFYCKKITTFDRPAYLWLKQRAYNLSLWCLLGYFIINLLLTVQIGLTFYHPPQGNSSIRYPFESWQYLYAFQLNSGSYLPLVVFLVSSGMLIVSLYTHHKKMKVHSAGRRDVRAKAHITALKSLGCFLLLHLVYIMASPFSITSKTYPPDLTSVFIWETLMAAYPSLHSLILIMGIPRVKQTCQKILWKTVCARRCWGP
More on the design: bioluminescence intracellular calcium release assay, mt-clytin II with coelenterazine, Gα16-gust44 co-expressed. The conditions noted are these: 293AD cells. On the procedure: as §1

Test [1] deals with T4, TAS2R46 (Homo sapiens, UniProt P59540).
T4 sequence (P59540 1-309): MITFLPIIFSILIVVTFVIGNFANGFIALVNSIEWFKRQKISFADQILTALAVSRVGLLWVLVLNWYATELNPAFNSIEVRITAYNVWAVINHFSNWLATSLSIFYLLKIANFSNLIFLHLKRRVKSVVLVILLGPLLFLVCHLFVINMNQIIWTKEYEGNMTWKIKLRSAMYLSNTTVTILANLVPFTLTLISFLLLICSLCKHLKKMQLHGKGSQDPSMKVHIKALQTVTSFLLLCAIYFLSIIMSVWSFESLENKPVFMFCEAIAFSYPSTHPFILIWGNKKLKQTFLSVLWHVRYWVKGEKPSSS
More on the design: species or system 293AD; bioluminescence intracellular calcium release assay, mt-clytin II with coelenterazine, Gα16-gust44 co-expressed. The procedure:
(§2) The bioluminescence-based assay was used to characterize the functional properties of various human TAS2Rs. For each TAS2R, one or more of its cognate agonists were tested against either the AD-293 or 293AD cell line, or both. Both cell lines were used because of their stronger adherent properties, which facilitate media changes on the day of the FLIPR assay. However, because both cell lines are generated differently, some disparities in gene expression capacities due to a myriad of factors could be reasonably expected. Consequently, some TAS2Rs may be well expressed in one cell line but not the other, and the ability of each cell line to express a particular TAS2R needs to be empirically evaluated. […] However, deviations between our experimental and published potency values for some ligands (i.e. TAS2R4: stevioside; TAS2R7: Mg^2+, Mn^2+, Zn^2+) were observed, which could be attributed to the use of a different assay format, readout and processing parameters, use of different cell lines with resultant potential differences in TAS2R expression levels, and quality and methodological differences in ligand preparations. […] A strength of the bioluminescence-based TAS2R assay is its capacity to generate greater assay spans than that of fluorescence-based assays, which could be largely attributed to the utilization of mt-clytin II as the calcium reporter. […]

Test [2] addresses T4, TAS2R46. More on the design: species or system AD-293; bioluminescence intracellular calcium release assay, mt-clytin II with coelenterazine, Gα16-gust44 co-expressed. The procedure: as §2

Read-outs that look alike come from different tables or passages of the source.

One may read the EC50 as the concentration giving half of the maximal effect.

For `CCN(CC)CCCC(C)Nc1ccnc2cc(Cl)ccc12` (stereo not drawn) [Chloroquine diphosphate], the EC50 on TAS2R3 amounted to 45 ± 14 µM.
Regarding `O=C(O[C@@H]1Cc2c(O)cc(O)cc2O[C@@H]1c1cc(O)c(O)c(O)c1)c1cc(O)c(O)c(O)c1` [Epigallocatechin gallate], the EC50 at TAS2R39 (293AD cells) was determined as 141 ± 44 µM; at TAS2R39 (AD-293 cells) it was 362 ± 81 µM; at TAS2R5 it was 47 ± 11 µM.
Consider `O=C1C[C@@H]2OCC=C3CN4CC[C@]56c7ccccc7N1[C@H]5[C@H]2[C@H]3C[C@H]46` [Strychnine], for which the concentration for a half-maximal effect (EC50) at TAS2R46 [1] is 0.309 ± 0.073 µM; at TAS2R46 [2] it was 1.2 µM.
